In paper PMC5190053, “Blocking the PAH2 domain of Sin3A inhibits tumorigenesis and confers retinoid sensitivity in triple negative breast cancer” (Oncotarget, 2016):

Biological target: T1, mSin3A PAH2 domain; SIN3A PAH2; Sin3A
T1 construct: PAH2 (paired amphipathic helix 2) domain only
Assay: fluorescence anisotropy competition assay
Type: binding, Mus musculus
Settings: conditions cited to earlier work

Ki: 23.6 µM
Structure (SMILES): O=C(O)c1cccc2c1NC(c1cccc(Cl)c1Cl)C1CC=CC21 (stereo not shown) [C16, 4-(2,3-Dichlorophenyl)-3a,4,5,9b-tetrahydro-3H-cyclopenta[c]quinoline-6-carboxylic acid]
